Results taken from patent US20150344466A1 (SUMITOMO CHEMICAL COMPANY, LIMITED, priority 2013, published 2015).

Legend:
Blattella germanica = assay: Knockdown spray test on Blattella germanica, 0.1% w/v oil formulation (Test Example 2); type: in vivo; settings: topical, 0.25 h, active ingredient 0.1% w/v, 1.5 ml sprayed, within 15 minutes, read-out: knockdown rate of the test insects within 15 minutes
Description: Ten Blattella germanica (5 males and 5 females) were released in a test container (8.75 cm in diameter, 7.5 cm in height, and the bottom made of 16 mesh metallic wire) with the inner wall on which butter was applied, and the container was placed on the bottom of a test chamber (bottom: 46 cm×46 cm, height: 70 cm). From a height of 60 cm above the upper surface of the container, 1.5 ml of the test drug solution was sprayed using a spray gun (a spraying pressure of 0.42 kg/cm^2). Thirty seconds after spraying, the container was taken out from the test chamber, and after 2 minutes, 5 minutes and 15 minutes, the number of knocked-down insects was counted to obtain a knockdown rate. The knockdown rate was calculated by the following equation.
(§1) Knockdown Rate (%)=(Number of Knocked-down Insects/Number of Tested Insects)×100

Culex pipiens pallens = assay: Knockdown spray test on adult Culex pipiens pallens (Test Example 4); type: in vivo; settings: topical, 0.25 h, active ingredient 0.1% w/v, 0.5 ml sprayed, within 15 minutes, read-out: knockdown rate of the test insects within 15 minutes
Description: Ten adult Culex pipiens pallens were released in a polyethylene cup (bottom diameter: 10.6 cm), and the cup was covered with a 16-mesh nylon gauze. The polyethylene cup was placed on the bottom of a test chamber (bottom: 46 cm×46 cm, height: 70 cm). From a height of 30 cm above the upper surface of the polyethylene cup, 0.5 ml of the test drug solution was sprayed using a spray gun (a spraying pressure of 0.4 kg/cm^2). Immediately after spraying, the cup was taken out from the test chamber, and after 2 minutes, 5 minutes and 15 minutes, the number of knocked-down insects was counted to obtain a knockdown rate. The knockdown rate was calculated by the following equation.
as §1

Row | Compound | pest or weed control at 0.1 % strength (Blattella germanica) [%] | pest or weed control at 0.1 % strength (Culex pipiens pallens) [%]
1 | O=C(NCC1CCOC1)c1cc(COCc2cccc(F)c2)on1 (centres unmarked) [(74)] | ≥ 80 | ≥ 80
2 | O=C(NCC1CCOCC1)c1cc(COCc2cccc(F)c2)on1 [(75), N-(tetrahydropyran-4-ylmethyl)-5-(3-fluorobenzyloxymethyl)isoxazole-3-carboxamide] | ≥ 80 | ≥ 80
3 | O=C(NCC1CCOC1)c1cc(COCc2cccc(SC(F)(F)F)c2)on1 (centres unmarked) [(80), N-(tetrahydrofuran-3-ylmethyl)-5-(3-trifluoromethylthiobenzyloxymethyl)isoxazole-3-carboxamide] | ≥ 80 | ≥ 80
4 | COc1cccc(COCc2cc(C(=O)NCC3CCOCC3)no2)c1 [(85), N-(tetrahydropyran-4-ylmethyl)-5-(3-methoxybenzyloxymethyl) isoxazole-3-carboxamide] | ≥ 80 | ≥ 80
5 | CSc1cccc(COCc2cc(C(=O)NCC3CCOC3)no2)c1 (centres unmarked) [(88), N-(tetrahydrofuran-3-ylmethyl)-5-(3-methylthiobenzyloxymethyl)isoxazole-3-carboxamide] | ≥ 80 | ≥ 80
6 | O=C(NCC1CCOC1)c1cc(COCc2ccc(F)cc2)on1 (centres unmarked) [(89), N-(tetrahydrofuran-3-ylmethyl)-5-(4-fluorobenzyloxymethyl)isoxazole-3-carboxamide] | ≥ 80 | ≥ 80
7 | COc1ccc(COCc2cc(C(=O)NCC3CCOC3)no2)cc1 (centres unmarked) [(99), N-(tetrahydrofuran-3-ylmethyl)-5-(4-methoxybenzyloxymethyl) isoxazole-3-carboxamide] | ≥ 80 | ≥ 80
8 | O=C(NCC1CCOC1)c1cc(COCc2ccc(Cl)s2)on1 (centres unmarked) [(109), N-(tetrahydrofuran-3-ylmethyl)-5-(2-chlorothiophen-5-ylmethoxymethyl)isoxazole-3-carboxamide] | ≥ 80 | ≥ 80
9 | O=C(NCC1CCOCC1)c1cc(COCc2ccc(Cl)s2)on1 [(110), N-(tetrahydropyran-4-ylmethyl)-5-(2-chlorothiophen-5-ylmethoxymethyl)isoxazole-3-carboxamide] | ≥ 80 | ≥ 80
10 | O=C(NCC1CCOC1)c1cc(COCc2cc3ccccc3o2)on1 (centres unmarked) [(111)] | ≥ 80 | ≥ 80
11 | O=C(NCC1CCOC1)c1cc(COCc2ccc(-c3ccccc3)o2)on1 (centres unmarked) [(124), N-(tetrahydrofuran-3-ylmethyl)-5-(5-phenylfurfuryloxymethyl)isoxazole-3-carboxamide] | ≥ 80 | ≥ 80
12 | O=C(NCC1CCOC1)c1cc(COCCCc2ccccc2)on1 (centres unmarked) [(133), N-(tetrahydrofuran-3-ylmethyl)-5-(3-phenylpropoxymethyl)isoxazole-3-carboxamide] | ≥ 80 | ≥ 80
13 | O=C(NCC1CCOCC1)c1cc(COCCCc2ccccc2)on1 [(134), N-(tetrahydropyran-4-ylmethyl)-5-(3-phenylpropoxymethyl)isoxazole-3-carboxamide] | ≥ 80 | ≥ 80
14 | O=Cc1c(C(=O)NCC2CCOC2)noc1COCc1ccccc1 (centres unmarked) [(165), N-(tetrahydrofuran-3-ylmethyl)-(5-benzyloxymethyl-4-formyl) isoxazole-3-carboxamide] | ≥ 80 | 
15 | CC(F)c1c(C(=O)NCC2CCOC2)noc1COCc1ccccc1 (centres unmarked) [(172), N-(tetrahydrofuran-3-ylmethyl)-[5-benzyloxymethyl-4-(1-fluoroethyl)]isoxazole-3-carboxamide] | ≥ 80 | ≥ 80
16 | O=C(NCC1CCOC1)c1noc(COCc2ccccc2)c1CO (centres unmarked) [(174), N-(tetrahydrofuran-3-ylmethyl)-(5-benzyloxymethyl-4-hydroxymethyl)isoxazole-3-carboxamide] | ≥ 80 | ≥ 80
17 | CC(O)c1c(C(=O)NCC2CCOC2)noc1COCc1ccccc1 (centres unmarked) [(175), N-(tetrahydrofuran-3-ylmethyl)-[5-benzyloxymethyl-4-(1-hydroxyethyl)]isoxazole-3-carboxamide] | ≥ 80 | ≥ 80
18 | O=C(NCC1CCOCC1)c1cc(COc2ccccc2Cl)on1 [(177), N-(tetrahydropyran-4-ylmethyl)-5-(2-chlorophenoxymethyl)isoxazole-3-carboxamide] | ≥ 80 | ≥ 80

Row | Compound | pest or weed control at 0.1 % strength (Blattella germanica) [%] | pest or weed control at 0.1 % strength (Culex pipiens pallens) [%]
19 | O=C(NCC1CCOC1)c1cc(COc2cccc(Cl)c2)on1 (centres unmarked) [(178), N-(tetrahydrofuran-3-ylmethyl)-5-(3-chlorophenoxymethyl)isoxazole-3-carboxamide] | ≥ 80 | ≥ 80
20 | O=C(NCC1CCOC1)c1cc(COc2ccc(Cl)cc2)on1 (centres unmarked) [(180)] | ≥ 80 | ≥ 80
21 | O=C(NCC1CCOC1)c1cc(COc2ccc(F)cc2)on1 (centres unmarked) [(184)] | ≥ 80 | ≥ 80
22 | O=C(NCC1CCOC1)c1cc(COc2ccc(Br)cc2)on1 (centres unmarked) [(186), N-(tetrahydrofuran-3-ylmethyl)-5-(4-bromophenoxymethyl)isoxazole-3-carboxamide] | ≥ 80 | ≥ 80
23 | CC(O)c1c(C(=O)NCC2CCOC2)noc1COCc1ccc2ccccc2c1 (centres unmarked) [(210), N-(tetrahydrofuran-3-ylmethyl)-1-hydroxyethyl-5-(2-naphthylmethoxymethyl)isoxazole-3-carboxamide] | ≥ 80 | ≥ 80
24 | O=C(NCC1CCOC1)c1noc(COCc2ccc3ccccc3c2)c1CF (centres unmarked) [(211), N-(tetrahydrofuran-3-ylmethyl)-4-fluoromethyl-5-(2-naphthylmethoxymethyl)isoxazole-3-carboxamide] | ≥ 80 | ≥ 80
25 | O=C(NCC1CCOC1)c1noc(COCc2ccc3ccccc3c2)c1Br (centres unmarked) [(256), N-(tetrahydrofuran-3-ylmethyl)-5-(2-naphthylmethoxymethyl)-4-bromoisoxazole-3-carboxamide] |  | ≥ 80
26 | O=C(NCC1CCOC1)c1cc(COCc2cc(F)ccc2F)on1 (centres unmarked) [(259), N-(tetrahydrofuran-3-ylmethyl)-5-(2,5-difluorobenzyloxymethyl)isoxazole-3-carboxamide] |  | ≥ 80
27 | O=C(NCC1CCOC1)c1cc(COCc2cc(Br)cc(Br)c2)on1 (centres unmarked) [(262), N-(tetrahydrofuran-3-ylmethyl)-5-(3,5-dibromobenzyloxymethyl)isoxazole-3-carboxamide] |  | ≥ 80
28 | O=C(NCC1CCOC1)c1cc(COCc2c(F)c(F)cc(F)c2F)on1 (centres unmarked) [(269), N-(tetrahydrofuran-3-ylmethyl)-5-(2,3,5,6-tetrafluorobenzyloxymethyl)isoxazole-3-carboxamide] |  | ≥ 80
29 | Cc1c(F)c(F)c(COCc2cc(C(=O)NCC3CCOC3)no2)c(F)c1F (centres unmarked) [(273), N-(tetrahydrofuran-3-ylmethyl)-5-(4-methyl-2,3,5,6-tetrafluorobenzyloxymethyl)isoxazole-3-carboxamide] |  | ≥ 80
30 | O=C(NCC1CCOC1)c1noc(COCc2ccc3ccccc3c2)c1I (centres unmarked) [(295), N-(tetrahydrofuran-3-ylmethyl)-5-(2-naphthylmethoxymethyl)-4-iodoisoxazole-3-carboxamide] |  | ≥ 80
31 | O=C(NCC1CCOC1)c1noc(COCc2ccccc2F)c1Br (centres unmarked) [(296), N-(tetrahydrofuran-3-ylmethyl)-5-(2-fluorobenzyloxymethyl)-4-bromoisoxazole-3-carboxamide] |  | ≥ 80
32 | O=C(NCC1CCOC1)c1noc(COCc2ccccc2F)c1I (centres unmarked) [(297), N-(tetrahydrofuran-3-ylmethyl)-5-(2-fluorobenzyloxymethyl)-4-iodoisoxazole-3-carboxamide] |  | ≥ 80
33 | O=C(NCC1CCOC1)c1cc(Cc2cc(Cl)cc(Cl)c2)on1 (centres unmarked) [(307), N-(tetrahydrofuran-3-ylmethyl)-5-(3,5-dichlorobenzyl)isoxazole-3-carboxamide] |  | ≥ 80
34 | O=C(NCC1CCOC1)c1cc(Cc2ccc(C(F)(F)F)cc2)on1 (centres unmarked) [(316), N-(tetrahydrofuran-3-ylmethyl)-5-(4-trifluoromethylbenzyl)isoxazole-3-carboxamide] |  | ≥ 80
35 | O=C(NCC1CCOC1)c1cc(Cc2ccccc2F)on1 (centres unmarked) [(320), N-(tetrahydrofuran-3-ylmethyl)-5-(2-fluorobenzyl)isoxazole-3-carboxamide] |  | ≥ 80
36 | O=C(NCC1CCOC1)c1cc(Cc2ccccc2Cl)on1 (centres unmarked) [(323), N-(tetrahydrofuran-3-ylmethyl)-5-(2-chlorobenzyl)isoxazole-3-carboxamide] |  | ≥ 80
